Measurements from patent US20240269305A1, “STING AGONIST SUITABLE AS PAYLOAD OF ANTIBODY DRUG CONJUGATE” (HITGEN INC., priority 2021, published 2024).

Legend:
STING signaling pathway [1] = assay: THP1-Blue ISG reporter assay (QUANTI-Blue); assay type: cell-based, human; details: THP1-Blue ISG cells, 18 h incubation, QUANTI-Blue OD 620-655 nm, read-out: EC50
Protocol: (§1) In this experiment, THP1-Blue™ ISG (interferon-stimulated genes) cell line (InvivoGen, catalog number: thp-isg) was used to evaluate the activating of interferon signaling pathway after the treatment by the compounds. THP1-Blue™ ISG cells were cultured using RPMI1640 medium (containing 10% heat-inactivated fetal bovine serum, 100 μg/ml Zeocin™, InvivoGen, catalog number: ant-zn-1). On the first day of the experiment, the compound was dissolved in DMSO as a stock solution, which was then diluted with culture medium to 2× working concentration and then 100 μL per well of the above dilution was added to a 96-well plate; THP1 cells in the logarithmic growth phase were counted and diluted to a concentration of 1*10^6 cells/mL, which was then added at 100 μL per well (1*10^5 cells/well) to the aforementioned 96-well plate containing the compounds. After mixed, the above cells in the 96-well plate were incubated at 37° C. with 5% CO2 for 18 h. On the second day, the above cell culture supernatant was aspirated at 20 μL per well, which was added to a new 96-well plate. And then 180 μL per well of QUANTI-Blue™ solution (InvivoGen, catalog number: rep-qbs1) was added. The above cells in the 96-well plate were incubated at 37° C. for 1 h. OD (620-655 nm) value was read on a Microplate Reader, and the EC50 value was calculated by using GraphPad to fit the dose-effect curve. 50 μL of Celltiter Glo solution (Promega, Cat. No. G756B) was added to the remaining cell culture plates.

[2] = Cytotoxicity in THP1-Blue ISG cells (Celltiter Glo); assay type: cell-based, human; details: human, Celltiter Glo luminescence
Protocol: as §1

STING signaling pathway [3] = assay: Cytokine secretion in PBMC (ELISA); assay type: cell-based; details: 6 h, ELISA of supernatant
Protocol: (§2) The following experiments were performed to determine the activation effect of the compound on the STING signaling pathway in PBMC cells, which mainly using ELISA to detect the secretion of IL-6, TNF-, IFN-, and IFN- in the cell culture supernatant. At the same time, CTG (CellTiter-Glo) was used to detect the survival rate of the cells, and to calculate the half cytotoxic dose of cells CC50.
(§3) The frozen PBMC cells were placed in a 37° C. water bath. After the ice was completely melted, the cells were transferred to 3 ml of RPMI 1640 complete culture medium (containing 10% FBS), and then centrifuged at 1500 rpm for 3 minutes. After removing the supernatant, the cells were re-suspended for counting. 200 μL of 50,000 PBMC cells were added in a 96-well plate, and the compounds to be tested were diluted with different gradient concentrations. After 6 h, 150 μL of the cell supernatant was aspirated, and the concentrations of IL-6, TNF-, IFN-, and IFN- were measured using ELISA kits, and the curves of compound concentration and cytokine release were drawn to calculate the values of EC50. 50 μL of CTG solution was added to the remaining cell culture plate.

[4] = Cytotoxicity in PBMC (CellTiter-Glo); assay type: cell-based; details: PBMC cells, CTG
Protocol: as §2, §3

STING signaling pathway [5] = assay: IFN-β production in THP1 cells (ELISA); assay type: cell-based; details: Homo sapiens, THP-1; THP1 cells, 18 h incubation, ELISA of culture supernatant; read-out: IFN-β EC50
Protocol: In this experiment, the function of sting agonists was evaluated by detecting the changes of IFN-β and CXCL10 (IP10) cytokines which were produced by the stimulation of the compounds to human peripheral blood mononuclear cell line THP1 cell (Shanghai Cell Bank). On the first day of the experiment, ELISA plates were coated according to the instructions of IFN-β (R&D, #DY814-05) and IP10 (BD, #550926) ELISA detection kits. The compound was dissolved in DMSO as a stock solution, which was diluted with culture medium to a 2× working concentration, and then added to a 96-well plate at 100 μL per well; THP1 cells in the logarithmic growth phase were counted and diluted to a concentration of 2*10^6/mL, which was then added at 100 μL per well to the aforementioned 96-well plate containing the compounds. After mixed, the above cells in the 96-well plate were incubated at 37° C. and 5% CO2 for 18 h. On the second day, the above cell culture supernatant was aspirated at 100 μL per well, and then their OD450 values were determined using the IFN-β and IP10 ELISA detection kits respectively. The obtained data was converted to the concentration of IFN-β and IP10 according to the standard curve, and the EC50 values were calculated using GraphPad 5.0 to fit the dose-effect curve.

Row | SMILES | EC50 (STING signaling pathway [1]; Homo sapiens) [nM] | CC50 at 18 h [2] [µM] | EC50 (STING signaling pathway [3]; read-out: IFN-β EC50) [nM] | EC50 (STING signaling pathway [3]; read-out: IL-6 EC50) [nM] | EC50 (STING signaling pathway [3]; read-out: TNF-α EC50) [nM] | CC50 at 6 h [4] [µM] | EC50 (STING signaling pathway [5]) [nM] | EC50 (STING signaling pathway [1]) [nM]
1 | CCc1nc(C)sc1C(=O)Nc1nc2cc(C(N)=O)cc(OC)c2n1C/C=C/Cn1c(NC(=O)c2cc(C)nn2CC)nc2cc(C(N)=O)cc(OCCCN3CCNCC3)c21 [Example 20] | 100 to 1000 | > 50 | 100 to 1000 | 100 to 1000 | 100 to 1000 | > 50 |  | 
2 | CCc1nc(C)sc1C(=O)Nc1nc2cc(C(N)=O)cc(SC)c2n1C/C=C/Cn1c(NC(=O)c2c(F)c(C)nn2CC)nc2cc(C(N)=O)cc(OCCCN3CCN(C(=O)OCCCC4CCNCC4)CC3)c21 [Example 14] | < 100 | > 50 | 100 to 1000 | 100 to 1000 | < 100 | > 50 | 100 to 1000 | 
3 | CCc1nc(C)sc1C(=O)Nc1nc2cc(C(N)=O)cc(OCCCN3CCN(CCNC)CC3)c2n1C/C=C/Cn1c(NC(=O)c2cc(C)nn2CC)nc2cc(C(N)=O)cc(SC)c21 [Example 11] |  |  |  |  |  |  | > 1000 | 
4 | CCc1nc(C)sc1C(=O)Nc1nc2cc(C(N)=O)cc(OCCCN3CCN(C(=O)C(C)(C)CCN)CC3)c2n1C/C=C/Cn1c(NC(=O)c2cc(C)nn2CC)nc2cc(C(N)=O)cc(SC)c21 [Example 3] | < 100 | > 50 | 100 to 1000 | 100 to 1000 | 100 to 1000 | > 40 | 100 to 1000 | 
5 | CCc1nc(C)sc1C(=O)Nc1nc2cc(C(N)=O)cc(OCCCN3CCN(C(=O)OCCCC4CCNCC4)CC3)c2n1C/C=C/Cn1c(NC(=O)c2c(F)c(C)nn2CC)nc2cc(C(N)=O)cc(SC)c21 [Example 15] |  |  |  |  |  |  | 100 to 1000 | 
6 | CCc1nc(C)sc1C(=O)Nc1nc2cc(C(N)=O)cc(OCCCN3CCN(C(=O)CCN)CC3)c2n1C/C=C/Cn1c(NC(=O)c2cc(C)nn2CC)nc2cc(C(N)=O)cc(SC)c21 [Example 1] | < 100 | > 50 | 100 to 1000 | 100 to 1000 | 100 to 1000 | > 25 | 100 to 1000 | 
7 | CCc1nc(C)sc1C(=O)Nc1nc2cc(C(N)=O)cc(OCCCN3CCN(C(=O)C(C)(C)CCNC(=O)OCCCNC(=O)OCc4ccc(NC(=O)[C@H](CCCNC(N)=O)NC(=O)[C@@H](NC(=O)CCCCCN5C(=O)C=CC5=O)C(C)C)cc4)CC3)c2n1C/C=C/Cn1c(NC(=O)c2cc(C)nn2CC)nc2cc(C(N)=O)cc(SC)c21 [Example 41] |  | > 50 |  | 100 to 1000 | 100 to 1000 |  |  | < 100
8 | CCc1nc(C)sc1C(=O)Nc1nc2cc(C(N)=O)cc(OCCCN3CCOCC3)c2n1C/C=C/Cn1c(NC(=O)c2c(F)c(C)nn2CC)nc2cc(C(N)=O)cc(OCCCN)c21 [Example 19] |  |  |  |  |  |  | > 1000 | 
9 | CCc1nc(C)sc1C(=O)Nc1nc2cc(C(N)=O)cc(OCCCN3CCOCC3)c2n1C/C=C/Cn1c(NC(=O)c2c(F)c(C)nn2CC)nc2cc(C(N)=O)cc(SCCCN)c21 [Example 17] |  |  |  |  |  |  | > 1000 | 
